{"source": "patent US20050049240A1", "about": "“Tetrahydroisochinolines, their production and the use thereof as analgesics” (Bayer HealthCare AG, priority 2001, published 2005)", "biological_target": "T1, human neurotensin-2 (NT-2) receptor (Homo sapiens, UniProt O95665)", "T1 construct": "expressed in transfected cells", "T1 sequence (O95665 whole entry)": "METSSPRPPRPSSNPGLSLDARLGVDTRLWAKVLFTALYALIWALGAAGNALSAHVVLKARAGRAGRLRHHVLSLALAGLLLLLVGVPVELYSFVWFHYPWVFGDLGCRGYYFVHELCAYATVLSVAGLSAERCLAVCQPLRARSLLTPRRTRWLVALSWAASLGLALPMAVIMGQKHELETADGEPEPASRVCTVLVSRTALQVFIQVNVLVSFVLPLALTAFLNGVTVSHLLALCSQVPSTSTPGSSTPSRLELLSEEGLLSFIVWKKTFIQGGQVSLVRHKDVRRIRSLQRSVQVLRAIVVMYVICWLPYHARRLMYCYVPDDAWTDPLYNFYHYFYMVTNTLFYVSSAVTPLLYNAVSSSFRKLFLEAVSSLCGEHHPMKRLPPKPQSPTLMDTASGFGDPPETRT", "experiment": "NT2 antagonism assay (intracellular calcium release in CHO or HEK 293 cells recombinantly expressing the receptor)", "assay_type": "cell-based", "conditions": "functional in vitro assay; block of agonist (e.g. SR48692)-dependent intracellular calcium release; recombinant human NT-2 receptor", "text": "The activation of the human neurotensin-2 (NT-2) receptor by an agonist, for example SR48692, 2-{[1-(7-chloroquinolin-4-yl)-5-(2,6-dimethoxyphenyl)pyrazol-3-yl]carbonylamino}tricyclo[3.3.3.1 ^3,7]decane-2-carboxylic acid, leads, via stimulation of phospholipase C, to the release of calcium ions from intracellular stores. Antagonists block the activation of the receptor by the agonist and therefore also the agonist-dependent stimulation of phospholipase C and the intracellular calcium release initiated thereby.\nA functional in vitro assay may be carried out with stable cell lines, for example CHO or HEK 293, which express the human NT-2 receptor recombinantly. The activity of the receptor is determined via measurement of the intracellular calcium release coupled thereto (in microtiter plates having 96, 384 and 1536 wells/plate). The concentration-dependent action of the NT-2 ligands tested on the receptor activity may be reported as IC50."}
{"compound": "NC(=O)COc1ccccc1C1C(C(=O)NCc2cccnc2)c2ccccc2C(=O)N1CCC1=CCCCC1", "note": "(single isomer, unassigned) [enantiomer B of example 1, 3,4-trans-3-[2-(2-Carbamoylmethoxy)phenyl]-2-[2-(1-cyclohexen-1-yl)ethyl]-1-oxo-N-(3-pyridinylmethyl)-1,2,3,4-tetrahydro-4-isoquinolinecarboxamide]", "values": [{"measurement": "IC50", "value": "< 200", "unit": "nM"}]}
